From ChEMBL document CHEMBL4251560, “The Novel 4-Phenyl-2-Phenoxyacetamide Thiazoles modulates the tumor hypoxia leading to the crackdown of neoangiogenesis and evoking the cell death” (Eur J Med Chem, 2018)

Experiments:
Format in all cases: functional, cell-based
MCF7 [1] = assay: Cytotoxicity against human MCF7 cells assessed as reduction in cell viability after 48 hrs by trypan blue exclusion assay; conditions: MCF7, 48 h
MCF7 [2] = assay: Cytotoxicity against human MCF7 cells assessed as reduction in cell viability after 48 hrs by MTT assay; conditions: MCF7, 48 h
A549 [3] = assay: Cytotoxicity against human A549 cells assessed as reduction in cell viability after 48 hrs by trypan blue exclusion assay; conditions: A549, 48 h
A549 [4] = assay: Cytotoxicity against human A549 cells assessed as reduction in cell viability after 48 hrs by MTT assay; conditions: A549, 48 h
Ehrlich [5] = assay: Cytotoxicity against mouse EAC cells assessed as reduction in cell viability after 48 hrs by trypan blue exclusion assay
Ehrlich [6] = assay: Cytotoxicity against mouse EAC cells assessed as reduction in cell viability after 48 hrs by MTT assay
[7] = Cytotoxicity against mouse DLA cells assessed as reduction in cell viability after 48 hrs by trypan blue exclusion assay
[8] = Cytotoxicity against mouse DLA cells assessed as reduction in cell viability after 48 hrs by MTT assay
MDA-MB-468 [9] = assay: Cytotoxicity against human MDA-MB-468 cells assessed as reduction in cell viability after 48 hrs by trypan blue exclusion assay; conditions: MDA-MB-468, 48 h
MDA-MB-468 [10] = assay: Cytotoxicity against human MDA-MB-468 cells assessed as reduction in cell viability after 48 hrs by MTT assay; conditions: MDA-MB-468, 48 h

SMILES	IC50 (MCF7 [1]) [µM]	IC50 (MCF7 [2]) [µM]	IC50 (A549 [3]) [µM]	IC50 (A549 [4]) [µM]	IC50 (Ehrlich [5]) [µM]	IC50 (Ehrlich [6]) [µM]	IC50 [7] [µM]	IC50 [8] [µM]	IC50 (MDA-MB-468 [9]) [µM]	IC50 (MDA-MB-468 [10]) [µM]
Cc1ccccc1OCC(=O)Nc1nc(-c2ccc(Br)cc2)cs1	39.7	40.1	49.8	50.1	44.5	44.9	62.8	62.2	44.5	44.9
CC(C)c1ccccc1OCC(=O)Nc1nc(-c2ccc(Br)cc2)cs1	43.5	42.5	48.5	48.2	50.1	50.9	45.1	45.7	50.1	50.9
O=C(COc1ccc(Cl)cc1)Nc1nc(-c2ccc(Cl)cc2)cs1	44.1	44.5	49.1	49.9	52.1	51.9	52.1	53.2	56.8	55.5
Cc1ccc(OCC(=O)Nc2nc(-c3ccc(Cl)cc3)cs2)cc1	48.8	48.7	44.8	45.7	40.1	40.6	52.1	52.9	50.1	50.9
O=c1[nH]cc(F)c(=O)[nH]1 [FLUOROURACIL]	10.6	10.2			9.6	9.2	10.6	10.8	44.6	44.9
Cc1ccc(-c2csc(NC(=O)COc3ccc(Cl)cc3)n2)cc1	43.7	43.8	44.7	44	42	42.5	52.1	52.4	44.7	44.2
O=C(COc1ccc(F)cc1)Nc1nc(-c2ccc(Cl)cc2)cs1	35.3	35.5	36.3	36.5	35.9	35.3	35.1	35.9	42.9	42.1
O=C(COc1ccccc1)Nc1nc(-c2ccc(Br)cc2)cs1	54	54.3	52.2	52.9	37.1	37.2	55.9	60.3	37.1	37.2
Cc1ccccc1OCC(=O)Nc1nc(-c2ccc(Cl)cc2)cs1	62.8	62.2	64.8	64.9	63.1	62.3	49	49.2	52.1	40.1
O=C(COc1ccc(Cl)cc1)Nc1nc(-c2ccc(Br)cc2)cs1	41.4	41.1	46.4	46.1	40.6	40.1	55.9	60.3	51.7	52.1
Cc1ccc(-c2csc(NC(=O)COc3ccc(F)cc3)n2)cc1	18.1	18.3	19.1	19.3	18.1	18.4	18.1	18.9	24.4	24.9
Cc1ccc(-c2csc(NC(=O)COc3ccc(Cl)c(C)c3)n2)cc1	41.5	40.9	44.5	44.9	59.1	58.8	59.1	60.3	54.7	54.2
Cc1cc(Cl)ccc1OCC(=O)Nc1nc(-c2ccc(Cl)cc2)cs1	40.1	40.6	43.1	43.4	52.1	52.4	40.6	40.1	52.1	52.4
O=C(COc1ccc(Br)cc1)Nc1nc(-c2ccc(Cl)cc2)cs1	52.1	52.4	54.9	54.4	51.7	52.1	40.1	40.6	50.9	45.1
O=C(COc1ccc(F)cc1F)Nc1nc(-c2ccc(Br)cc2)cs1	52.1	52.9	59.1	58.8	44.7	44.2	55.3	55.8	44.7	44.2
O=C(COc1ccc(F)cc1)Nc1nc(-c2ccc(Br)cc2)cs1	56.8	55.5	51.7	52.1	45.3	45.5	43.5	42.5	51.7	52.1
Cc1ccc(OCC(=O)Nc2nc(-c3ccc(C)cc3)cs2)cc1	41.4	41.3	48.8	48.3	45.1	45.7	39.7	40.1	37.1	37.2
Cc1cc(OCC(=O)Nc2nc(-c3ccc(Br)cc3)cs2)ccc1Cl	51.7	52.1	51.7	52.1	47.1	47.8	39.7	40.1	51.7	52.1
Cc1ccc(OCC(=O)Nc2nc(-c3ccc(Br)cc3)cs2)cc1	52.4	52.2	58.6	58.8	55.3	55.8	43.5	42.5	44.5	44.9
Cc1ccc(-c2csc(NC(=O)COc3ccccc3C(C)C)n2)cc1	49	49.2	44.7	44.2	42.8	42.9	52.2	52.9	56.8	55.5
Cc1ccc(-c2csc(NC(=O)COc3ccc(Br)cc3)n2)cc1	39	39.1	37.1	37.2	48.5	48.2	51.7	52.1	40.1	40.9
O=C(COc1ccc(F)cc1F)Nc1nc(-c2ccc(Cl)cc2)cs1	25.3	25.8	26.3	26.5	26.5	26.2	26.4	26.1	32.3	32.9
O=C(COc1ccccc1)Nc1nc(-c2ccc(Cl)cc2)cs1	55.9	60.3	42.8	42.9	56.8	55.5	53.2	53.5	44.2	55.3
Cc1ccc(-c2csc(NC(=O)COc3ccccc3C)n2)cc1	53.2	53.5	50.1	50.9	54.9	54.4	46.6	46.5	51.7	52.1
O=C(COc1ccc(Br)cc1)Nc1nc(-c2ccc(Br)cc2)cs1	44.5	44.9	46.6	46.5	41.1	41.7	52.1	52.4	41.1	41.7
CC(C)c1ccc(OCC(=O)Nc2nc(-c3ccc(Cl)cc3)cs2)c(C(C)C)c1	40.6	40.1	48.6	48.8	62.8	62.2	54	54.3	41.1	41.7
CC(C)c1ccccc1OCC(=O)Nc1nc(-c2ccc(Cl)cc2)cs1	18.1	18.7	17.1	17.8	49.8	50.1	40.1	40.6	55.5	53.2
Cc1ccc(-c2csc(NC(=O)COc3ccccc3)n2)cc1	43	43	41.1	41.7	49.8	50.1	51.7	52.1	54.5	54.9
